Reference: publication PMC10708954, “Exploring the Effect of Compound Glycyrrhizin and Silybinin on the Metabolism of Pexidartinib in Rats Based on CYP3A4 and CYP2C9” (Advances in Pharmacological and Pharmaceutical Sciences, 2023)
Like-named read-outs stand apart in the source and are kept apart here.

What was measured:
CYP2C9 = test: Western blot of CYP2C9 protein expression in rat liver
Method: (§1) The rats in all five groups were gavaged once a day for fourteen consecutive days. Groups E and G were gavaged with 150 mg/kg aqueous solution of silybinin (containing 21 mg/kg silybinin), groups F and H were gavaged with 13.5 mg/kg aqueous solution of compound glycyrrhizin (containing 4.5 mg/kg glycyrrhizin), and from the 15-days onwards, groups G and H were given 40 mg/kg of PXD per day for a total of 7-days, and equal amounts of saline were given to groups E and F. Group D was gavaged with equal amounts of saline until the end of the experiment. After gavage for 21 days, rats in each group were anesthetized with 10% urethane, and their fresh livers were snap-frozen in liquid nitrogen and stored at −80°C for subsequent experiments.
(§2) Fresh livers were removed at −80°C and weighed portions were homogenized in ep tubes with lysis buffer containing 0.1% PMSF. We prepared 12% SDS-PAGE routine gel, then each group took the corresponding protein samples and prestained Marker samples, 80 V constant voltage for 90 min, the voltage was adjusted to 120 V, and electrophoresis was continued for 30 min. […] Imaging was performed using Imgage-ProPlus 6.0 software and quantitative analysis was performed using Image J software.

CYP3A4 = test: Western blot of CYP3A4 protein expression in rat liver
Method: as §1, §2

[1] = Pharmacokinetics of PXD in rat plasma (HPLC-UV) after 14 days pretreatment with saline, silybinin or CG; type: in vivo, rats; conditions: for Cmax / Tmax / half-life / CL/F / Vd/F: rat, plasma, rats, n = 6, mean ± SD; for CL/F: read-out: CLz/F (converted); for Vd/F: read-out: Vz/F
Method: Group B was gavaged with silybinin aqueous solution 150 mg/kg (containing silybinin 21 mg/kg), group C was gavaged with compound glycyrrhizin aqueous solution 13.5 mg/kg (containing glycyrrhizin 4.5 mg/kg), and in contrast, group A was gavaged with an equal amount of saline. After 14-days of administration, three groups were given 40 mg/kg PXD. 0.5 mL of blood was taken from the caudal vein at 0.25, 0.50, 1.00, 2.00, 3.00, 4.00, 6.00, 8.00, 12.00, 24.00, and 48.00 h after being gavaged and added to EP tubes containing heparin, followed by centrifugation at 3500 rpm for 15 min, and finally the supernatant was stored at −20°C and stored for measurement.
The apparatus used in the chromatographic analysis of this work was an 1100 series high-performance liquid chromatography (product of Agilent, USA), which mainly included a vacuum degasser, a four-component infusion pump, an automatic sampler, a column temperature box, and a DAD detector. The fundamental steps were as follows. First of all, the chromatographic separation was carried out on a Venusil C18 column (4.6 mm × 250 mm, 5 μm). Subsequently, the analytes were thoroughly separated under the mobile phase water, acetonitrile, and 0.2% TFA (37 : 43 : 20).
After preparatory 2 ml EP tubes, 300 μL of plasma samples and 15 μL of 10 ng/ml of alpelisib working solution were pipetted separately, followed by 300 μL of 10% sodium carbonate solution, mixed well, and then 1.0 ml of ethyl acetate was included to sediment the proteins. The mixture was vortexed for 2.0 min and subsequently centrifuged at 3500 rpm for 20 min at 4°C. At last, 900 μL of the upper organic phase was transferred to a fresh EP tube, blown dry with an air stream at 50°C, and then redissolved with 100 μL of mobile phase, and 20 μL was sampled for the assay.
In the current study, the drug concentration of PXD in rat plasma was plotted versus the time curve as well as all the bar graphs using GraphPad Prism 8.0 software. Then, DAS (Drug And Statistics) 2.0 software (Shanghai University of Traditional Chinese Medicine, China) was employed to get the main pharmacokinetic parameters of the analytes in nonatrial mode. Then, a one-way analysis of variance (ANOVA) was performed using SPSS (statistical product and service solutions) 25.0 software, while finally, an independent samples t-test was applied to the comparison of major pharmacokinetic parameters between the two groups, where Tmax was tested using rank sum test. Statistical significance was indicated by P < 0.05.

[2] = group B (silybinin pretreatment) compared to group A, P < 0.01
[3] = group B (silybinin pretreatment) compared to group A, P < 0.05
[4] = group C (CG pretreatment) compared to group A, P < 0.05
[5] = po, 40 mg/kg, Group A (control: saline 14 days, then single oral 40 mg/kg PXD)
[6] = po, 40 mg/kg, Group B (silybinin aqueous solution 150 mg/kg, containing silybinin 21 mg/kg, 14 days, then single oral 40 mg/kg PXD)
[7] = Group C (compound glycyrrhizin aqueous solution 13.5 mg/kg, containing glycyrrhizin 4.5 mg/kg, 14 days, then single oral 40 mg/kg PXD)

For COc1cc(C2Oc3cc([C@H]4Oc5cc(O)cc(O)c5C(=O)[C@@H]4O)ccc3OC2CO)ccc1O (stereo partly drawn) [silybinin, Silybinin], the “protein expression level of CYP2C9” value (CYP2C9; rat liver, gavage 21 days, compared with the control group, P < 0.05 and P < 0.01) was “decreased” and the “protein expression level of CYP3A4” value (CYP3A4; gavage 21 days, compared with the control group, P < 0.05 and P < 0.01) was “decreased”.
With FC(F)(F)c1ccc(CNc2ccc(Cc3c[nH]c4ncc(Cl)cc34)cn2)cn1 [PXD, Pexidartinib] the “effect of PXD on the protein expression of CYP2C9” value (CYP2C9; rat, in vivo, 40 mg/kg) was “inducing effect”, the “effect of PXD on the protein expression of CYP3A4” value (CYP3A4; 40 mg/kg PXD per day for 7 days after silybinin or CG) was “inducing effect” and the “decrease of Vz/F” value [1, 2] was 31.78%. For the same compound, the “increase of AUC0⟶t” value [1, 2] was 28.97%, the “increase of AUC0⟶∞” value [1, 2] was 26.74% and the “decrease of CLz/F” value [1, 3] was 20.69%. The “increase of Cmax” value [1, 3] was 20.72%, the “increase of Cmax” value ([1]; group C (CG pretreatment) compared to group A, P < 0.01) was 36.25% and the “increase of AUC0⟶t” value [1, 4] was 20.98%. For the same compound, the “increase of AUC0⟶∞” value [1, 4] was 21.22%, the Cmax [1, 5] was 10800 ± 1140 ng/mL and the Tmax [1, 5] was 4.33 ± 1.37 h. For the same compound, the half-life [1, 5] was 9.83 ± 3.13 h, the CL/F [1, 5] was 4.83 mL/min/kg and the Vd/F [1, 5] was 4.09 ± 1.16 L/kg. It also gave a Cmax [1, 6] of 13000 ± 1160 ng/mL, a Tmax [1, 6] of 4.17 ± 0.98 h and a half-life [1, 6] of 8.49 ± 3.3 h. For the same compound, the CL/F [1, 6] was 3.83 mL/min/kg, the Vd/F [1, 6] was 2.79 ± 1.03 L/kg and the Cmax [1, 7] was 14700 ± 2390 ng/mL. The Tmax [1, 7] was 4.1 ± 1.1 h, the half-life [1, 7] was 5.23 ± 1.13 h and the CL/F [1, 7] was 4.17 mL/min/kg. The Vd/F [1, 7] was 1.81 ± 0.3 L/kg.
